Results as given in patent US5136076A, “Process for the preparation of amino acid-derived enatiomeric compounds” (Societe Civile Bioprojet, priority 1987, dated 1992).

Columns and labels:
[1] = cited from earlier work
[2] = test system: angiotensin conversion enzyme (ACE); details: cited from earlier work
[3] = target: T1, ACE (angiotensin convertase) (Mus musculus, UniProt P09470); assay: ACE inhibition in vivo, mouse striatum (Table 1 (d))
T1 construct: Activities measured on mouse striatum membranes in vitro or 30; from tissue; host or cells: mouse striatum (membranes)
T1 sequence (P09470 35-1312): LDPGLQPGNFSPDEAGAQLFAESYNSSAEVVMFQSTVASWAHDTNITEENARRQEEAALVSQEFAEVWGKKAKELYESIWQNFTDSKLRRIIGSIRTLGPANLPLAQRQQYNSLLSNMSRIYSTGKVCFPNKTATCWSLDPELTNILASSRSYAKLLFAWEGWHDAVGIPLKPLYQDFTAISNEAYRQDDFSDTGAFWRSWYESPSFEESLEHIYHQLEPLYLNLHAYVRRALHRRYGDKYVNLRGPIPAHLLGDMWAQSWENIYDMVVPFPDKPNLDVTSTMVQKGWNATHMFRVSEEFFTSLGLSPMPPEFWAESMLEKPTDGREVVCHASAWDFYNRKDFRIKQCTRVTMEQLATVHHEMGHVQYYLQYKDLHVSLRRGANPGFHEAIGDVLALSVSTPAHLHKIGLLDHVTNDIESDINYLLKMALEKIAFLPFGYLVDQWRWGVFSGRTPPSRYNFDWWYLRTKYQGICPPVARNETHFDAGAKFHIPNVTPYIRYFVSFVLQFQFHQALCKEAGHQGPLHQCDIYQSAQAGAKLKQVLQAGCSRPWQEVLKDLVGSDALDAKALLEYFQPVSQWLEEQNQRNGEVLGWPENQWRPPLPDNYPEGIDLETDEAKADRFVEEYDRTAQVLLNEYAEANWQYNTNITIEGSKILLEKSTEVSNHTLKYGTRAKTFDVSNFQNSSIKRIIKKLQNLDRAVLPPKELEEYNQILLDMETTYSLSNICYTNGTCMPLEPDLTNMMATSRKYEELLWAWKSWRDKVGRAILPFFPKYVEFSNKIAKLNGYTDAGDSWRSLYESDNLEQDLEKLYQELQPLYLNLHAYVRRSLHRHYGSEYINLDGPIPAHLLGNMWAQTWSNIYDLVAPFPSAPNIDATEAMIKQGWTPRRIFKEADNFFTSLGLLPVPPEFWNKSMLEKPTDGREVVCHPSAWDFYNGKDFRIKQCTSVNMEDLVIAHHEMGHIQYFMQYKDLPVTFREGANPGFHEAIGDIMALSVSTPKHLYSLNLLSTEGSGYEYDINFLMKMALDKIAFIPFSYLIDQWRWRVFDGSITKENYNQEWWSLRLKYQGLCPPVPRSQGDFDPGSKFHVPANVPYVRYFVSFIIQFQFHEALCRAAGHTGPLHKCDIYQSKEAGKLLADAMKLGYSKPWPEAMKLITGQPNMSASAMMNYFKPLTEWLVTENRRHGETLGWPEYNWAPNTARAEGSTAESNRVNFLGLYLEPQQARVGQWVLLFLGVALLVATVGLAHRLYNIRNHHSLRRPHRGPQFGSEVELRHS
Excerpt: (§1) Dosage of `enkephalinase` activity and angiotensin convertase (ACE) activity with determination of the effect of inhibitors both in vitro and on mouses in vivo: inhibition of the same enzymes and protection of natriuretic auricular factor.
(§2) ENKEPHALINASE AND ACE INHIBITING ACTIVITIES IN IN VITRO AND IN VIVO STRIATUM
(§3) (c) and (d)Activities measured on mouse striatum membranes in vitro or 30
(§4) mn after i.v. administration according to Yang and Neff, J. Neurochem, […]

cats [4] = assay: Inhibition of stimulated gastric acid secretion; assay type: in vivo, cat; details: 0.5, 1.5 and 5 mg/kg i.v.; p<0.05
enkephalinase [5] = target: T2, enkephalinase (Mus musculus, UniProt Q61391); assay: Enkephalinase inhibition in vitro on striatum membranes (Table 1 (a)); assay type: biochemical
T2 construct: Activity measured on striatum membranes according to Llorens et al., J; from tissue; host or cells: striatum membranes
T2 sequence (Q61391 1-750): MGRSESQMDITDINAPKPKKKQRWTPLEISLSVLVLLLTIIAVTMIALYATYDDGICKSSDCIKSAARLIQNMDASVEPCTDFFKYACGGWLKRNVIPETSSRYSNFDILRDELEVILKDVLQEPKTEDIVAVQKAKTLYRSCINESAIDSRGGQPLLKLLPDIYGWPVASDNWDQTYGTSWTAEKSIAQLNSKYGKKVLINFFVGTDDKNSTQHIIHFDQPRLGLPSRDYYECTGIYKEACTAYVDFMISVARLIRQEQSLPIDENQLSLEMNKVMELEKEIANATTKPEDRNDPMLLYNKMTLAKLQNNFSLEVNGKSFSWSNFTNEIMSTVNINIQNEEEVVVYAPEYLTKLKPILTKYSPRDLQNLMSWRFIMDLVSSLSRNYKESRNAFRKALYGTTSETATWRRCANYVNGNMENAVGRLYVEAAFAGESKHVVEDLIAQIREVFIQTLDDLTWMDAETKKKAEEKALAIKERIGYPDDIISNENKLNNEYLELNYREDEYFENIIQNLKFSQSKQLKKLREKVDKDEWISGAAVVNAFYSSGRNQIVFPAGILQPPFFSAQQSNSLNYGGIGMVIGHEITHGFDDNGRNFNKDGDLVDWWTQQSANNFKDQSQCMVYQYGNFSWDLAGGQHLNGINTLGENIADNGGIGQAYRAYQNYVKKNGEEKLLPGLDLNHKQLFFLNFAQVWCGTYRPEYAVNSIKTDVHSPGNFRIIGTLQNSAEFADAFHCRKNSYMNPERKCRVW
Excerpt: as §1, §2
(a)Activity measured on striatum membranes according to Llorens et al., J

mouses [6] = assay: Subacute toxicity, 3 weeks oral; assay type: in vivo; details: 2 g/kg/day oral, mouse, as opposed to control
Experimental: Compound (1) was administered during 3 weeks to mouses at an oral dose of 2 g/kg/day.
Moreover, no signs of tolerance, habituation or other weaning phenomenon were observed on animals submitted to a reversibility test after treatment.

cats [7] = assay: Anti-inflammatory activity in experimental cholecystitis; assay type: in vivo, cat; details: 3 mg/kg i.v.
dogs = assay: Colic motive activity (motive index) after standard meal; assay type: in vivo, dog
Excerpt: Motive index (as evaluated with a restraint gauge).
Influence of previous intravenous (i.v.) or oral (p.o.) administration of
compound or the variations of the colic motive index after standard meal

mouses [8] = assay: Analgesic activity, plate jump test at 55° C.; assay type: in vivo, mouse
Experimental: III. ANALGESIC ACTIVITIES MEASURED ON PLATE JUMP TEST AT 55° C. AFTER ADMINISTRATION TO MOUSES.
(Eddy and Leimbach, J. Pharmacol. Exp. Ther. 1953, 107 385).

[9] = target: T1, ACE (angiotensin convertase); assay: ACE inhibition in vitro on mouse striatum membranes (Table 1 (c)); assay type: biochemical
Excerpt: as §1, §2, §3, §4

enkephalinase [10] = assay: Enkephalinase inhibition in vivo in mouse striatum (Table 1 (b)); details: 30 mn after i.v. administration, 30 min
Excerpt: as §1, §2
(b)Activity measured in mouse striatum 30 mn after i.v. administration
according to LlorensCortes et al., Eur. J. Pharmacol., 1985, 119, 183.

renal enkephalinase = assay: Inhibition of linking between Acetorphan and renal enkephalinase after oral administration (Table 2 (a)); assay type: in vivo, mouse; details: kidney, 0.3 mg/kg oral, 90 minutes after administration
Excerpt: as §1
(§5) ENKEPHALINASE INHIBITING ACTIVITIES AND PROTECTION OF NATRIURETIC AURICULAR FACTOR (ANF) IN THE KIDNEY IN VIVO
(a) Inhibition of the linking between […] Acetorphan and renal
enkephalinase measured according to S. de la Baume, M. Tuong, F. Brion, J
C. Schwartz (J.P.E.T. 1988, forthcoming) 90 minutes after oral
administration of compounds 1 or 2 at a dose of 0.3 mg/kg.

[11] = test system: natriuretic auricular factor (ANF) in the kidney; assay: Protection of natriuretic auricular factor (ANF) in the kidney in vivo (Table 2 (b)); set-up: species or system mouse; details: for Increase of ANF (%): renal 125I ANF 2 min after i.v. administration of 10^6 cpm, compound 0.3 mg/kg orally 90 min before, 0.3 mg/kg
Experimental: as §1, §5
(b) Increase in the renal level of ^125 I ANF, as measured 2 min afte
i.v. administration of 10^6 cpm to mouses having been given compounds
1 or 2, 90 min before (0.3 mg/kg, orally).
Compound 2 (0.3 mg/kg, p.o.) induces in the same test an increase of renal ^125 I ANF of 75±7% after 30 min and […] after 180 min.

plasma ANF = assay: Clinical pharmacology: plasma natriuretic auricular factor (ANF); assay type: in vivo, human; details: 30 mg oral, 1 hr after administration, vs placebo, p<0.05
Experimental: (§6) With healthy volunteers (9 male subjects) enkephalinase and natriuretic auricular factor (ANF) plasma levels as well as diuresis and natruresis are measured after oral administration of either a placebo, or (S) acetorphan.

plasma enkephalinase = assay: Clinical pharmacology: plasma enkephalinase; assay type: in vivo, human; details: 30 mg oral, 1 hr after administration, vs placebo, p<0.001
Experimental: as §6

healthy volunteers = assay: Clinical pharmacology: diuresis and natriuresis; assay type: in vivo, human; details: 30 mg oral, between 2 and 8 hours after administration, p<0.05
Experimental: as §6

For `CC(=O)SCC(Cc1ccccc1)C(=O)NCC(=O)OCc1ccccc1` (racemic) [Acetorphan, (R,S) N-/2-acetylthiomethyl-1-oxo-3-phenyl propyl/-glycine benzyl ester], the dose active intraveinously ([1]; i.v.) is listed as “around 1 mg/kg”.

In the case of `O=C(O)CNC(=O)C(CS)Cc1ccccc1` (racemic) [thiorphan], the cardiovascular activity ([1]; at a higher dose) is listed as “at a higher dose, a cardiovascular activity”, the “active dose systemically, times higher than Acetorphan” value ([1]; systemically, relative to Acetorphan i.v. (around 1 mg/kg)) is listed as “about 50 times” and the analgesic properties ([1]; used intraveinously or intracerebroventricularly) is listed as “analgesic properties”. The “inhibition of angiotensin conversion enzyme” value [2] was “less powerful inhibitor of angiotensin conversion enzyme”.

For `CC(=O)SCC(Cc1ccccc1)C(=O)NCC(=O)OCc1ccccc1` (single isomer, unassigned) [Compound (1)], the ACE-inhibiting effect ([3]; mouse, in vivo) was “lack of ACE-inhibiting effect”, the ED50 ([3]; mouse, iv, 0.5 h, mouse striatum, 30 mn after i.v. administration, read-out: ACE In vivo(d) (DE50, mg/kg)) was > 20 mg/kg and the “stimulation of gastric acid secretion induced by Pentagastrin, 2-deoxyglucose and histamin” value (cats [4]) was “significatively decreased”. For the same molecule, the IC50 (enkephalinase [5]) was 2 nM, the “Organ weight and pathological examination” value (mouses [6]) was “no difference as opposed to control” and the “hypersecretion induced by an inflammation of the gall bladder” value (cats [7]) was “significatively decreases hypersecretion”. The “Motive index, After meal (0/+2 h)” value (dogs; 1 mg/kg i.v.) was 15.2 ± 2.4, the “Motive index, After meal (+2/10 h)” value (dogs; 1 mg/kg i.v.) was 18.3 ± 3.1 and the “Motive index, Before meal (-2/0)” value (dogs; 1 mg/kg i.v.) was 5.9 ± 0.7. For the same molecule, the “Motive index, After meal (0/+2 h)” value (dogs; 10 mg/kg p.o.) was 17.4 ± 2.7, the “Motive index, After meal (+2/10 h)” value (dogs; 10 mg/kg p.o.) was 21.5 ± 4.6 and the “Motive index, Before meal (-2/0)” value (dogs; 10 mg/kg p.o.) was 6.4 ± 0.8. The “colic motricity as an answer to the intake of food” value (dogs; dogs, postprandial periods) was “potentiates an increase in colic motricity”, the “Reaction time” value (mouses [8]; 5 mg/kg i.v., 20' before test) was 85 ± 5 s and the “Reaction time” value (mouses [8]; 30 mg/kg oral, 1 h before test) was 80 ± 6 s. The “Reaction time” value (mouses [8]; 100 mg/kg oral, 1 h before test) was 140 ± 10 s, the IC50 [9] was 5000 nM and the “Enkephalinase In vivo(b) (DE50, mg/kg)” value (enkephalinase [10]) was 0.8 mg/kg. The “Inhibition of enkephalinase (%)” value (renal enkephalinase) was 15 ± 6% and the “Increase of ANF (%)” value [11] was “inactive”.

For `CC(=O)SCC(Cc1ccccc1)C(=O)NCC(=O)OCc1ccccc1` (single isomer, unassigned) [Compound (2)], the “ACE In vivo(d) (DE50, mg/kg)” value ([3]; mouse striatum, 30 mn after i.v. administration, 30 min) was 10 mg/kg, the “stimulation of gastric acid secretion induced by Pentagastrin, 2-deoxyglucose and histamin” value (cats [4]) was “significatively decreased” and the IC50 (enkephalinase [5]) was 3 nM. For the same molecule, the “increase of plasma ANF” value (plasma ANF) was 50%, the “inhibition of plasma enkephalinase” value (plasma enkephalinase) was 62% and the “Motive index, After meal (0/+2 h)” value (dogs; 5 mg/kg p.o.) was 16.3 ± 2.5. For the same molecule, the “Motive index, After meal (+2/10 h)” value (dogs; 5 mg/kg p.o.) was 20.1 ± 3.7, the “Motive index, Before meal (-2/0)” value (dogs; 5 mg/kg p.o.) was 6.2 ± 0.9 and the “Reaction time” value (mouses [8]; 30 mg/kg oral, 1 h before test) was 75 ± 5 s. It also gave an increase of diuresis (healthy volunteers) of 42%, an increase of natriuresis (healthy volunteers) of 46% and an IC50 [9] of 100 nM. The “Enkephalinase In vivo(b) (DE50, mg/kg)” value (enkephalinase [10]) was 0.4 mg/kg, the “Inhibition of enkephalinase (%)” value (renal enkephalinase) was 54 ± 6% and the “increase of renal 125I ANF” value ([11]; 0.3 mg/kg p.o., after 30 min) was 75±7%. For the same molecule, the “Increase of ANF (%)” value [11] was 33 ± 3%.
